{"source": "paper PMC12527922", "about": "“Cocaine chemogenetics blunts drug-seeking by synthetic physiology” (Nature, 2025)", "assay_in_all_cases": "cell-based", "assay_type_in_all_cases": "cell-based, human α7 nAChR LBD, mouse 5HT3 IPD", "key": {"[1]": {"biological_target": "α7–5HT3 mutant chimeric channels (Homo sapiens, UniProt P36544, Q139R)", "sequence (P23979 242-489)": "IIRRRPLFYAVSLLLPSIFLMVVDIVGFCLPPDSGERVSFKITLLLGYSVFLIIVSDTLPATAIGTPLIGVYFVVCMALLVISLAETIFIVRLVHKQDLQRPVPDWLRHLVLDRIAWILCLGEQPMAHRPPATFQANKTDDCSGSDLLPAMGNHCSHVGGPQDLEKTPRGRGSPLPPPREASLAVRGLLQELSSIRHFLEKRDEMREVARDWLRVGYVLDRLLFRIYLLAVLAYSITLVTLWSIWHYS", "sequence (P36544 23-224 Q139R)": "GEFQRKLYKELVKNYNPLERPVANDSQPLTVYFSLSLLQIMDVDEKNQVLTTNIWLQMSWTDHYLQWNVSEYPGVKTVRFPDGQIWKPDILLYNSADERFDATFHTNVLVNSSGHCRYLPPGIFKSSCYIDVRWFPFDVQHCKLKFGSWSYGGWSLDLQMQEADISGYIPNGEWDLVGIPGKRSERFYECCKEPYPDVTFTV"}, "[2]": {"biological_target": "α7–5HT3 mutant chimeric channels (Homo sapiens, UniProt P36544, S170Q)", "sequence (P36544 23-224 S170Q)": "as the sequence (P36544 23-224 Q139R) above, with R117Q, S148Q counted along it", "sequence (P23979 242-489, further chain)": "as the sequence (P23979 242-489) above"}, "[3]": {"biological_target": "α7–5HT3 mutant chimeric channels (Homo sapiens, UniProt P36544, Q139P)", "sequence (P23979 242-489)": "as above", "sequence (P36544 23-224 Q139P)": "as the sequence (P36544 23-224 Q139R) above, with R117P counted along it"}, "[4]": {"biological_target": "α7–5HT3 mutant chimeric channels (Homo sapiens, UniProt P36544, W77Y)", "sequence (P36544 23-224 W77Y)": "as the sequence (P36544 23-224 Q139R) above, with W55Y, R117Q counted along it", "sequence (P23979 242-489, further chain)": "as the sequence (P23979 242-489) above"}, "[5]": {"biological_target": "α7–5HT3 mutant chimeric channels (Homo sapiens, UniProt P36544, Q139L)", "sequence (P36544 23-224 Q139L)": "as the sequence (P36544 23-224 Q139R) above, with R117L counted along it", "sequence (P23979 242-489, further chain)": "as the sequence (P23979 242-489) above"}, "[6]": {"biological_target": "α7–5HT3 mutant chimeric channels (Homo sapiens, UniProt P36544, S170N)", "sequence (P36544 23-224 S170N)": "as the sequence (P36544 23-224 Q139R) above, with R117Q, S148N counted along it", "sequence (P23979 242-489, further chain)": "as the sequence (P23979 242-489) above"}, "[7]": {"biological_target": "α7–5HT3 mutant chimeric channels (Homo sapiens, UniProt P36544, L141P)", "sequence (P36544 23-224 L141P)": "as the sequence (P36544 23-224 Q139R) above, with R117Q, L119P counted along it", "sequence (P23979 242-489, further chain)": "as the sequence (P23979 242-489) above"}, "[8]": {"biological_target": "α7–5HT3 mutant chimeric channels (Homo sapiens, UniProt P36544, S170F)", "sequence (P36544 23-224 S170F)": "as the sequence (P36544 23-224 Q139R) above, with R117Q, S148F counted along it", "sequence (P23979 242-489, further chain)": "as the sequence (P23979 242-489) above"}, "[9]": {"biological_target": "α7–5HT3 mutant chimeric channels (Homo sapiens, UniProt P36544, Q79A)", "sequence (P23979 242-489)": "as above", "sequence (P36544 23-224 Q79A)": "as the sequence (P36544 23-224 Q139R) above, with Q57A, R117Q counted along it"}, "[10]": {"biological_target": "α7–5HT3 mutant chimeric channels (Homo sapiens, UniProt P36544, S170H)", "sequence (P23979 242-489)": "as the sequence (P23979 242-489) above", "sequence (P36544 23-224 S170H)": "as the sequence (P36544 23-224 Q139R) above, with R117Q, S148H counted along it"}, "[11]": {"biological_target": "α7–5HT3 mutant chimeric channels (Homo sapiens, UniProt P36544, S170L)", "sequence (P23979 242-489)": "as the sequence (P23979 242-489) above", "sequence (P36544 23-224 S170L)": "as the sequence (P36544 23-224 Q139R) above, with R117Q, S148L counted along it"}, "[12]": {"biological_target": "α7–5HT3 mutant chimeric channels (Homo sapiens, UniProt P36544, Q139Y)", "sequence (P36544 23-224 Q139Y)": "as the sequence (P36544 23-224 Q139R) above, with R117Y counted along it", "sequence (P23979 242-489, further chain)": "as the sequence (P23979 242-489) above"}, "[13]": {"biological_target": "α7–5HT3 mutant chimeric channels (Homo sapiens, UniProt P36544, L131G)", "sequence (P36544 23-224 L131G)": "as the sequence (P36544 23-224 Q139R) above, with L109G, R117Q counted along it", "sequence (P23979 242-489, further chain)": "as the sequence (P23979 242-489) above"}, "[14]": {"biological_target": "α7–5HT3 mutant chimeric channels (Homo sapiens, UniProt P36544, S170T)", "sequence (P36544 23-224 S170T)": "as the sequence (P36544 23-224 Q139R) above, with R117Q, S148T counted along it", "sequence (P23979 242-489, further chain)": "as the sequence (P23979 242-489) above"}, "[15]": {"biological_target": "α7–5HT3 mutant chimeric channels (Homo sapiens, UniProt P36544, L141G)", "sequence (P36544 23-224 L141G)": "as the sequence (P36544 23-224 Q139R) above, with R117Q, L119G counted along it", "sequence (P23979 242-489, further chain)": "as the sequence (P23979 242-489) above"}, "[16]": {"biological_target": "α7–5HT3 mutant chimeric channels (Homo sapiens, UniProt P36544, L141S)", "sequence (P36544 23-224 L141S)": "as the sequence (P36544 23-224 Q139R) above, with R117Q, L119S counted along it", "sequence (P23979 242-489, further chain)": "as the sequence (P23979 242-489) above"}, "[17]": {"biological_target": "α7–5HT3 mutant chimeric channels (Homo sapiens, UniProt P36544, S170Y)", "sequence (P23979 242-489)": "as above", "sequence (P36544 23-224 S170Y)": "as the sequence (P36544 23-224 Q139R) above, with R117Q, S148Y counted along it"}, "[18]": {"biological_target": "α7–5HT3 mutant chimeric channels (Homo sapiens, UniProt P36544, S172K)", "sequence (P36544 23-224 S172K)": "as the sequence (P36544 23-224 Q139R) above, with R117Q, S150K counted along it", "sequence (P23979 242-489, further chain)": "as the sequence (P23979 242-489) above"}, "[19]": {"biological_target": "α7–5HT3 mutant chimeric channels (Homo sapiens, UniProt P36544, Q139M)", "sequence (P36544 23-224 Q139M)": "as the sequence (P36544 23-224 Q139R) above, with R117M counted along it", "sequence (P23979 242-489, further chain)": "as the sequence (P23979 242-489) above"}, "[20]": {"biological_target": "α7–5HT3 mutant chimeric channels (Homo sapiens, UniProt P36544, L141A)", "sequence (P36544 23-224 L141A)": "as the sequence (P36544 23-224 Q139R) above, with R117Q, L119A counted along it", "sequence (P23979 242-489, further chain)": "as the sequence (P23979 242-489) above"}, "[21]": {"biological_target": "α7–5HT3 mutant chimeric channels (Homo sapiens, UniProt P36544, W77F)", "sequence (P23979 242-489)": "as above", "sequence (P36544 23-224 W77F)": "as the sequence (P36544 23-224 Q139R) above, with W55F, R117Q counted along it"}, "[22]": {"biological_target": "α7–5HT3 mutant chimeric channels (Homo sapiens, UniProt P36544, Q139A)", "sequence (P23979 242-489)": "as the sequence (P23979 242-489) above", "sequence (P36544 23-224 Q139A)": "as the sequence (P36544 23-224 Q139R) above, with R117A counted along it"}, "[23]": {"biological_target": "α7–5HT3 mutant chimeric channels (Homo sapiens, UniProt P36544, L141F)", "sequence (P36544 23-224 L141F)": "as the sequence (P36544 23-224 Q139R) above, with R117Q, L119F counted along it", "sequence (P23979 242-489, further chain)": "as the sequence (P23979 242-489) above"}, "[24]": {"biological_target": "α7–5HT3 mutant chimeric channels (Homo sapiens, UniProt P36544, Q79G)", "sequence (P36544 23-224 Q79G)": "as the sequence (P36544 23-224 Q139R) above, with Q57G, R117Q counted along it", "sequence (P23979 242-489, further chain)": "as the sequence (P23979 242-489) above"}, "[25]": {"biological_target": "α7–5HT3 mutant chimeric channels (Homo sapiens, UniProt P36544, S172V)", "sequence (P36544 23-224 S172V)": "as the sequence (P36544 23-224 Q139R) above, with R117Q, S150V counted along it", "sequence (P23979 242-489, further chain)": "as the sequence (P23979 242-489) above"}, "[26]": {"biological_target": "α7–5HT3 mutant chimeric channels (Homo sapiens, UniProt P36544, Q139D)", "sequence (P23979 242-489)": "as above", "sequence (P36544 23-224 Q139D)": "as the sequence (P36544 23-224 Q139R) above, with R117D counted along it"}}, "note": "Like-named read-outs stand apart in the source and are kept apart here."}
{"smiles": "COC(=O)[C@H]1[C@@H](OC(=O)c2ccccc2)C[C@@H]2CC[C@H]1N2C", "note": "[cocaine]", "values": [{"measurement": "EC50", "setting": "[1]", "result": "> 30", "unit": "µM"}, {"measurement": "EC50", "setting": "[1]; read-out: EC50 at a7 5HT3 Q139R, Avg, sheet 1d, Avg", "result": "> 30", "unit": "µM"}, {"measurement": "EC50", "setting": "[2]", "result": "> 30", "unit": "µM"}, {"measurement": "EC50", "setting": "[3]", "result": "> 30", "unit": "µM"}, {"measurement": "EC50", "setting": "[3]; read-out: EC50 at a7 5HT3 Q139P, Avg, sheet 1d, Avg", "result": "> 30", "unit": "µM"}, {"measurement": "EC50", "setting": "[4]", "result": "> 30", "unit": "µM"}, {"measurement": "EC50", "setting": "[4]; read-out: EC50 at a7 5HT3 W77Y, Avg, sheet 1d, Avg", "result": "> 30", "unit": "µM"}, {"measurement": "EC50", "setting": "[5]", "result": "> 30", "unit": "µM"}, {"measurement": "EC50", "setting": "[5]; read-out: EC50 at a7 5HT3 Q139L, sheet 1d, single determinations", "result": "> 30", "unit": "µM"}, {"measurement": "EC50", "setting": "[6]", "result": "> 30", "unit": "µM"}, {"measurement": "EC50", "setting": "[7]", "result": "> 30", "unit": "µM"}, {"measurement": "EC50", "setting": "[7]; read-out: EC50 at α75HT3 L141P, Avg, sheet 1d, Avg", "result": "> 30", "unit": "µM"}, {"measurement": "EC50", "setting": "[8]", "result": "> 30", "unit": "µM"}, {"measurement": "EC50", "setting": "[9]", "result": "> 30", "unit": "µM"}, {"measurement": "EC50", "setting": "[9]; read-out: EC50 at a7 5HT3 Q79A, sheet 1d, single determinations", "result": "> 30", "unit": "µM"}, {"measurement": "EC50", "setting": "[10]", "result": "> 30", "unit": "µM"}, {"measurement": "EC50", "setting": "[11]", "result": 6, "unit": "µM"}, {"measurement": "EC50", "setting": "[12]", "result": "> 30", "unit": "µM"}, {"measurement": "EC50", "setting": "[12]; read-out: EC50 at a7 5HT3 Q139Y, Avg, sheet 1d, Avg", "result": "> 30", "unit": "µM"}, {"measurement": "EC50", "setting": "[13]", "result": "> 30", "unit": "µM"}, {"measurement": "EC50", "setting": "[13]; read-out: EC50 at α75HT3 L131G, sheet 1d, single determinations", "result": "> 30", "unit": "µM"}, {"measurement": "EC50", "setting": "[14]", "result": "> 30", "unit": "µM"}, {"measurement": "EC50", "setting": "[15]", "result": 2.35, "unit": "µM"}, {"measurement": "EC50", "setting": "[16]", "result": "> 30", "unit": "µM"}, {"measurement": "EC50", "setting": "[16]; read-out: EC50 at α75HT3 L141S, sheet 1d, single determinations", "result": "> 30", "unit": "µM"}, {"measurement": "EC50", "setting": "[17]", "result": "> 30", "unit": "µM"}, {"measurement": "EC50", "setting": "[18]", "result": "> 30", "unit": "µM"}, {"measurement": "EC50", "setting": "[19]", "result": "> 30", "unit": "µM"}, {"measurement": "EC50", "setting": "[19]; read-out: EC50 at a7 5HT3 Q139M, Avg, sheet 1d, Avg", "result": "> 30", "unit": "µM"}, {"measurement": "EC50", "setting": "[20]", "result": 3.5, "unit": "µM"}, {"measurement": "EC50", "setting": "[21]", "result": "> 30", "unit": "µM"}, {"measurement": "EC50", "setting": "[21]; read-out: EC50 at a7 5HT3 W77F, sheet 1d, single determinations", "result": "> 30", "unit": "µM"}, {"measurement": "EC50", "setting": "[22]", "result": "> 30", "unit": "µM"}, {"measurement": "EC50", "setting": "[22]; read-out: EC50 at a7 5HT3 Q139A, Avg, sheet 1d, Avg", "result": "> 30", "unit": "µM"}, {"measurement": "EC50", "setting": "[23]", "result": "> 30", "unit": "µM"}, {"measurement": "EC50", "setting": "[23]; read-out: EC50 at α75HT3 L141F, sheet 1d, single determinations", "result": "> 30", "unit": "µM"}, {"measurement": "EC50", "setting": "[24]", "result": "> 30", "unit": "µM"}, {"measurement": "EC50", "setting": "[24]; read-out: EC50 at a7 5HT3 Q79G, sheet 1d, single determinations", "result": "> 30", "unit": "µM"}, {"measurement": "EC50", "setting": "[25]", "result": "> 30", "unit": "µM"}, {"measurement": "EC50", "setting": "[26]", "result": "> 30", "unit": "µM"}, {"measurement": "EC50", "setting": "[26]; read-out: EC50 at a7 5HT3 Q139D, Avg, sheet 1d, Avg", "result": "> 30", "unit": "µM"}]}
